In patent US12390430B1 (SpringWorks Therapeutics, Inc., priority 2024, dated 2025):
Where two headings read alike, the source gives them in different places.

Columns and labels:
[1] = Human plasma protein binding; type: in vitro ADME
[2] = Excretion of radioactivity and unchanged mirdametinib; type: in vivo
[3] = Clinical pharmacokinetics of mirdametinib (Table A); type: in vivo, human; conditions: for Tmax / AUC(0-t) / Cmax: human, plasma; for Tmax: oral, read-out: Tmax [median (range)]; for AUC(0-t) / Cmax: po, steady state, BID oral dosing; for AUC(0-t): read-out: Steady-state exposure AUClast [geometric mean (geometric % CV)]; for Cmax: read-out: Steady-state exposure Cmax [geometric mean (geometric % CV)]
Method: Study treatment was administered orally at a twice daily (BID) dose specified in the table below. Dosing was on a 28-day Cycle (4-week course) with a 3 week on/1 week off schedule. The treatment period will last for up to 24 Cycles followed by a 30-day Safety Follow-Up period.

[4] = geometric least squares mean ratio
[5] = pediatric patients (2 to <18 years)

## O=C(NOC[C@H](O)CO)c1ccc(F)c(F)c1Nc1ccc(I)cc1F (single isomer, unassigned) [mirdametinib]
[1]
  fraction unbound: < 0.01
[2]; feces
  Excretion: radioactivity in feces: In feces: 27%
[2]; urine
  Excretion: radioactivity in urine: In urine: 68%
  Excretion: unchanged mirdametinib in urine: In urine: 0.7%
[2]; urine and feces
  Excretion: unchanged mirdametinib in urine and feces: In urine and feces: 9%
[3]; [4]
  Food effect on AUCinf [GMR% (90% CI)]: 93% (90%, 96%)
  Food effect on Cmax [GMR% (90% CI)]: 57% (54%, 61%)
[3]; capsule
  Tmax: 64.8 min
[3]; tablet
  Tmax: 49.8 min
[3]; adult patients (>18 years)
  AUC(0-t): 431 ng·h/mL
[3]; adult patients (≥18 years)
  Cmax: 188 ng/mL
[3]; [5]
  AUC(0-t): 459 ng·h/mL
  Cmax: 191 ng/mL
